Experimental data as given in ChEMBL document CHEMBL3351383, “Combination of chiral linkers with thiophenecarboximidamide heads to improve the selectivity of inhibitors of neuronal nitric oxide synthase” (Bioorg Med Chem Lett, 2014).

How the values were obtained:
[1] = Selectivity index, ratio of Ki for bovine eNOS to KI for rat nNOS
[2] = Selectivity index, ratio of Ki for mouse macrophage iNOS to KI for rat nNOS

Row | Ratio Ki [1] | Ratio Ki [2] | SMILES
1 | 18 | 92 | N=C(Nc1cccc(OC[C@@H]2C[C@@H](OCc3cccc(F)c3)CN2)c1)c1cccs1
2 | 142 | 163 | N=C(Nc1ccc(OC[C@@H]2C[C@@H](Oc3cccc(NC(=N)c4cccs4)c3)CN2)cc1)c1cccs1
3 | 86 | 90 | N=C(Nc1cccc(O[C@H]2CN[C@H](COCc3cccc(F)c3)C2)c1)c1cccs1
